The values below come from PubChem BioAssay (NCI).

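Tested at 5 concentrations; 48 h exposure; 96-well plates; endpoints linearly interpolated, else capped at highest concentration. At the GI50, growth is halved. TGI: total growth inhibition.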

Holding throughout (assay): NCI tumour cell line growth inhibition, 48 h
The test system of experiment [1] is CCRF-CEM leukemia.
In experiment [2] the test system is IGROV1 ovarian.
For experiment [3], the system named is OVCAR-8 ovarian.
Experiment [4] relates to DU-145 prostate.
In experiment [5] the test system is SW-620 colon.
The subject of experiment [6] is OVCAR-5 ovarian.
The subject of experiment [7] is UO-31 renal.
Experiment [8] concerns KM12 colon.
Experiment [9] concerns NCI-H23 lung.
Experiment [10] deals with COLO 205 colon.

Turning to `CCN(CC)CCCCCCCNc1c2ccc(Cl)cc2nc2ccc(OC)cc12`, the GI50 in experiment [1] is 0.619 µM; in [2], 0.498 µM; in experiment [3], 0.628 µM; in experiment [4], 0.66 µM; in [5], 376 nM; in experiment [6], 1.78 µM. Moreover, the GI50 is 0.545 µM in experiment [7], 649 nM in experiment [8], 1.14 µM in experiment [9] and 1090 nM in [10]. In addition, the TGI came to 3.89 µM in experiment [1]; 1.65 µM in experiment [2]; 2.9 µM in [3]; 2 µM in experiment [4]; 1.64 µM in experiment [5]; 7.55 µM in [6]. Also, the TGI came out at 2.03 µM in [7], 2.17 µM in experiment [8], 2.84 µM in experiment [9] and 2.48 µM in [10].

Take `Cn1c(=O)c2[nH]c(CS(=O)(=O)Cc3nc4c([nH]3)c(=O)n(C)c(=O)n4C)nc2n(C)c1=O`: the TGI in experiment [1], in [2], in [3], in experiment [4], in [5] and in experiment [6] was over 100 µM throughout. Also, the TGI in [7], in experiment [8], in experiment [9] and in experiment [10] was over 100 µM in each case.

Turning to `O=C(NOCC1CC1)c1ccc(F)c(F)c1Nc1ccc(I)cc1Cl`, the GI50 is 2.99 µM in [1]; 1.05 µM in experiment [2]; 2.32 µM in experiment [3]; 4.07 µM in [4]; 141 nM in [5]; 0.0764 µM in [6]. In addition, the GI50 in experiment [7] is 1.23 µM; in experiment [8], 649 nM; in experiment [9], 0.782 µM; in experiment [10], 70.4 nM. Besides, the TGI in [1] is 19.1 µM; in [2], 5.77 µM; in experiment [3], 20.6 µM; in experiment [4] it was over 100 µM; in experiment [5], over 39.3 µM; in experiment [7] it was 6.62 µM. Also, the figures for the TGI in experiment [8], in experiment [9] and in experiment [10] were 7.34 µM, 23 µM and 3.54 µM, respectively.

Turning to `N=C(N)CCCCCCCCC(=N)N`, the GI50 in experiment [1] was 44.6 µM; in experiment [2] it was 52.9 µM; in [3], 10.9 µM; in experiment [4], 20.8 µM; in experiment [5], 32500 nM; in [6], 26.4 µM. Further, the GI50 in [7] was 18.2 µM; in experiment [8], 21100 nM; in experiment [9], 5.11 µM; in [10] it was 7860 nM. The TGI in [1], in experiment [2], in [3], in [4], in [5] and in experiment [6] was over 100 µM in each case. Also, the TGI is over 100 µM in experiment [7], over 100 µM in experiment [8], 70.4 µM in [9] and 20.9 µM in [10].

With `O=C(CCCn1ccnc1[N+](=O)[O-])NCCn1ccnc1`, the TGI in experiment [1], in experiment [2], in [3], in experiment [4], in [5] and in experiment [6] was over 100 µM throughout. Besides, the TGI in [7], in experiment [8], in experiment [9] and in [10] was over 100 µM in each case.

`COc1cc2c(/C=C3/C(=O)Nc4ccccc43)c(Cl)n(Cc3ccccc3[N+](=O)[O-])c2cc1C`: the GI50 in [1] was 5.62 µM; in [2] it was 7.46 µM; in experiment [3] it was 26.1 µM; in [4] it was 6.74 µM; in [5] it was 7910 nM; in experiment [6], 15.6 µM. The GI50 was 6.29 µM in experiment [7], 4900 nM in experiment [8], 7.77 µM in experiment [9] and 3180 nM in experiment [10]. Besides, the TGI was over 100 µM in experiment [1]; over 100 µM in [2]; over 100 µM in experiment [3]; over 100 µM in [4]; 34.5 µM in [5]; 35.4 µM in experiment [6]. For the same compound, the TGI in [7] worked out at 25.1 µM; in experiment [8] it was 21.3 µM; in [9], 22.3 µM; in experiment [10] it was 15.5 µM.

For `O=C(Nc1ncc(Cc2ccccc2Cl)s1)c1ccc2c(c1)OCCO2`, the GI50 in experiment [1] was 0.36 µM; in experiment [2] it was 0.498 µM; in experiment [3], 0.479 µM; in [4] it was 0.384 µM; in [5], 358 nM; in experiment [6], 0.747 µM. Besides, the GI50 is 1.13 µM in experiment [7], 322 nM in [8], 0.625 µM in experiment [9] and 318 nM in experiment [10]. Further, the TGI in experiment [1] is over 100 µM; in experiment [2], over 57.8 µM; in [3], over 100 µM; in [4], 17.5 µM; in experiment [5], over 100 µM; in experiment [6], over 100 µM. In addition, the TGI in experiment [7] was over 100 µM; in [8], over 35.6 µM; in experiment [9], over 100 µM; in experiment [10] it was 3.55 µM.

With `OCCCCC#Cc1ccccc1C#Cc1ccccc1C(F)(F)F`, the GI50 in experiment [1] was 3.91 µM; in experiment [2], 11.2 µM; in [3], 13.3 µM; in experiment [4], 6.16 µM; in [5], 4350 nM; in experiment [6], 14.7 µM. Moreover, the GI50 was 11.8 µM in experiment [7], 3570 nM in experiment [8], 12.1 µM in experiment [9] and 17700 nM in [10]. The TGI is 17.2 µM in experiment [1]; 23.2 µM in experiment [2]; 31.6 µM in experiment [3]; 19 µM in experiment [4]; 16.4 µM in [5]; 30.8 µM in [6]. For the same compound, the TGI in experiment [7] was 24.1 µM; in experiment [8], 16.7 µM; in experiment [9], 27.8 µM; in experiment [10] it was 33.9 µM.
